Read-outs that look alike come from different tables or passages of the source.
What was measured:
HIV-1 = experiment: in vitro anti-HIV assay: inhibition of HIV-induced cytopathic effect in MT-4 cells (MTT); assay type: cell-based; conditions: for IC50: HIV-infected MT-4 cells, dose achieving 50% protection against cytopathic effect, MTT, OD 540 nm, mean value, read-out: IC50; for SI: selectivity index = ratio of CC50 to IC50
Method: (§1) A rapid, sensitive and automated assay procedure was used for the in vitro evaluation of anti-HIV agents. An […] T4-cell line, MT-4, which was previously shown (Koyanagi et al., Int. J. Cancer, 36, 445-451, 1985) to be highly susceptible to and permissive for HIV infection, served as the target cell line. Inhibition of the HIV-induced cytopathic effect was used as the end point. The viability of both HIV- and mock-infected cells was assessed spectrophotometrically via the in situ reduction of 3-(4,5-dimethylthiazol-2-yl)-2,5-diphenyltetrazolium bromide (MTT). The 50% […], cytotoxic concentration (CC50 in μM) was defined as the concentration of compound that reduced the absorbance of the mock-infected control sample by 50%. The percent protection achieved by the compound in HIV-infected cells was calculated by the following formula: [formula]
(§2) whereby (ODT)HIV is the optical density measured with a given concentration of the test compound in HIV-infected cells; (ODC)HIV is the optical density measured for the control untreated HIV-infected cells; (ODC)MOCK is the optical density measured for the control untreated mock-infected cells; all optical density values were determined at 540 nm. The dose achieving 50% protection according to the above formula was defined as the 50% inhibitory concentration (IC50 in μM). The ratio of CC50 to IC50 was defined as the selectivity index (SI).

[1] = cytotoxicity in mock-infected MT-4 cells (MTT); conditions: human, mock-infected MT-4 cells
Method: as §1, §2

MT-4 cells = experiment: cytotoxicity in mock-infected MT-4 cells (MTT)
Method: as §1, §2

[2] = Human immunodeficiency virus 1, MT4

Row | Compound | IC50 (HIV-1; [2]) [nM] | SI (HIV-1) | melting point [°C] | CC50 [1] [nM] | IC50 (HIV-1) [nM] | CC50 (MT-4 cells) [nM]
1 | CC(C)NC(=O)Nc1nc(Cc2c(Cl)cccc2Cl)nc(Nc2ccc(C#N)cc2)n1 [Compound 6, N-[4-[(4-cyano-phenyl)amino]-6-[(2,6-dichlorophenyl)methyl]-1,3,5-triazin-2-yl]-N′-(1-methylethyl)-urea] | 380 | >263 | 267 to 268 |  |  | 
2 | CNc1nc(Cc2c(Cl)cccc2Cl)nc(Nc2ccc(C#N)cc2)n1 [Compound 7, 4-[[4-[(2,6-dichlorophenyl)methyl]-6-(methyl-amino)-1,3,5-triazin-2-yl]amino]benzonitrile] | 10 | >14285 | 229 to 230 | > 100000 |  | 
3 | NC(=O)c1ccc(Nc2nc(N)nc(Cc3c(Cl)ccc4[nH]ccc34)n2)cc1 [Compound 9, 4-[[4-amino-6-[(5-chloro-1H-indol-4-yl)methyl]-1,3,5-triazin-2-yl]amino]benzamide] | 66 | 830 | 204 to 205 |  |  | 
4 | COc1cc(Cc2nc(N)nc(Nc3ccc(C#N)cc3)n2)cc(OC)c1 [Compound 53] |  | >48 |  |  | 410 | > 20000
5 | Cc1cc(C)c(C)c(Cc2nc(N)nc(Nc3ccc(C#N)cc3)n2)c1C [Compound 54] |  | 9515 |  |  | 5 | 43800
6 | COc1ccc(Br)cc1Cc1nc(N)nc(Nc2ccc(C#N)cc2)n1 [Compound 55] |  | >384 |  |  | 52 | > 20000
7 | N#Cc1ccc(Nc2nc(N)nc(Cc3cc(C(F)(F)F)ccc3C(F)(F)F)n2)cc1 [Compound 56] |  |  |  |  | > 74400 | > 100000
8 | Cc1ccc(C)c(Cc2nc(N)nc(Nc3ccc(C#N)cc3)n2)c1 [Compound 57] |  | 11883 |  |  | 3 | 36800
9 | N#Cc1ccc(Nc2nc(N)nc(Cc3c(F)cccc3C(F)(F)F)n2)cc1 [Compound 58] |  | 1418 |  |  | 14 | 20000
10 | N#Cc1ccc(Nc2nc(N)nc(Cc3cc(F)cc(F)c3)n2)cc1 [Compound 59] |  | >241 |  |  | 420 | > 100000
11 | COc1ccc(C(C)=O)cc1Cc1nc(N)nc(Nc2ccc(C#N)cc2)n1 [Compound 60] |  | 1841 |  |  | 39 | 71400
12 | CCO.Cl.N#Cc1ccc(Nc2nc(N)nc(C(CC3CC3)c3c(Cl)cccc3Cl)n2)cc1 (stereo not drawn) [Compound 61] |  | 7 |  |  | 6900 | 53400
13 | (±)-2-[[4-[(4-cyanophenyl)amino]-6-[(2,6-dichlorophenyl)amino]-6-[(2,6-dichloro-phenyl)methyl]-1,3,5-triazin-2-yl]amino-4-hydroxybutanamide [Compound 34] |  | 746 |  |  | 57 | 42300

Source: patent publication US20060049177A1, “Induction heating cooker” (LG Electronics Inc., priority 2004, published 2006)
